Measured values as given in patent US9315484B2, “Mitochondrial aldehyde dehydrogenase-2 modulators and methods of use thereof” (The Board of Trustees of the Leland Stanford Junior …, priority 2007, dated 2016).
Positions count from the first letter of the chain named.

Assays:
"wild-type" ALDH2 enzyme = target: T1, "wild-type" ALDH2 enzyme (Homo sapiens, UniProt P05091); test: Screen and inhibition assay with wild-type ALDH2 enzyme; type: biochemical
T1 sequence (P05091 18-517): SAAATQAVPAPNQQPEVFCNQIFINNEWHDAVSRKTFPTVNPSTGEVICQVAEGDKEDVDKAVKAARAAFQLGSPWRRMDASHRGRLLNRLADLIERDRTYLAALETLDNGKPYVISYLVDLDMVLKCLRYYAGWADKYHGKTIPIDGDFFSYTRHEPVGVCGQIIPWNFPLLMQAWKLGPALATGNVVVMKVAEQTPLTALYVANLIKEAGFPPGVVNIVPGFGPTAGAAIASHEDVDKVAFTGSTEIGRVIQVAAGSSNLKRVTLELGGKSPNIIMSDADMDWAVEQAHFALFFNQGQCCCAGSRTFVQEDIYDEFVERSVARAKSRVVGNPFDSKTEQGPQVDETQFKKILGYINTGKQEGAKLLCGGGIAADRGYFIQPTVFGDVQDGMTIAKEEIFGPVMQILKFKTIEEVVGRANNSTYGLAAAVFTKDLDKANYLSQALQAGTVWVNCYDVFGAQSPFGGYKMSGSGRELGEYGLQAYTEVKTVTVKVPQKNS
Protocol: (§1) Compounds were screened using a method as depicted schematically in FIG. 2. Essentially, the reaction is carried out at 25° C. in 0.1 NaPPi buffer, pH 9.5, 2.4 mM NAD^+ and 10 mM acetaldehyde as the substrate. Enzymatic activity is measured by a reductive reaction of NAD^+ to NADH at 340 nm. Alternatively, the production of NADH can be coupled with another enzymatic reaction that consumes NADH and that provides for a detectable signal. An example of such an enzymatic reaction is a diaphorase-based reaction, which reduces resazurin to its […] fluorescent compound resorufin.
Compounds were screened, as described above, but using the “wild-type” ALDH2 enzyme. Of 63,000 compounds screened, six inhibitors were identified. Three of the compounds, referred to in FIGS. 8, 9, and 10 as #062923, #046072, and #032208, respectively, were assayed for their effect on ALDH2 enzymatic activity.

[1] = target: T2, E487K variant of human ALDH2 (Homo sapiens, UniProt P05091, E504K); test: Enzymatic activity of histidine-tagged E487K ALDH2 variant (NAD+ to NADH, acetaldehyde substrate); type: biochemical; settings: over control (without activator compound) activity; n=3
T2 construct: made in house; host or cells: E. coli
T2 sequence (P05091 18-517 E504K): T1 sequence (P05091 18-517) with E487K
Protocol: as §1
For example, a 120 μl reaction mixture for ALDH2 enzymatic activity comprises the following components:
43 μl 150 mM sodium pyrophosphate (NaPPi) buffer, pH 9.0;
15 μl 80 mM acetaldehyde;
1 μl of resazurin (0.2 mg/ml in H2O);
1 μl of diaphorase (1 unit, e.g., from Clostridium kluyveri);
2 μl of variant ALDH2 (e.g., 2 μl of variant ALDH2 at (0.5-2 μg/μl); and
28 μl of a solution comprising an agent to be tested, which agent has been resuspended in an appropriate solvent (e.g., an aqueous solution, DMSO, and the like).
Fluorescent detection of the above-described reaction as described in Table 1:
A fusion protein that includes the E487K variant of human ALDH2 (see amino acid sequence depicted in FIG. 1B) and a poly-histidine tag was synthesized and used in screens for ALDH2 agonists. An expression construct that encodes the […] variant fused in-frame to a poly-histidine (His) tag was introduced into E. coli, and expression was induced by the addition of isopropyl-1-thio-3-D-galactoside (IPTG); and His-tagged E487K ALDH2 variant was produced. The His-tagged E487K ALDH2 variant was purified from E. coli extract using a metal ion affinity column to bind the His-tagged E487K ALDH2 variant. His-tagged E487K ALDH2 variant was eluted from the column and used in screening assays to identify ALDH2 agonists.

rat hearts = test: Ex vivo Langendorff model of myocardial infarction (no-flow ischemia and reperfusion); settings: ex vivo rat heart
Protocol: Ex vivo Langendorff preparations of rat hearts were used as a model to assess the damage incurred by no-flow ischemia and reperfusion injury. This is an experimental model that mimics the clinical situation of myocardial infarction in patients. Rat hearts were excised and cannulated on a Langendorff apparatus via the aorta. Retrograde perfusion was carried out using the standard oxygenated Kreb-Hensleit buffer maintained at 37° C. All hearts were stabilized by an initial 5- to 10-minute perfusion period followed by delivery of different cardioprotective agents or AldDH2 inhibitors for 10-30 minutes, depending on the reagent. Reagents used in some of the representative experiments including ethanol (50 mM), EPKC isozyme-selective activator and inhibitor peptides (1 μM), cyanamide (5 mM) and nitroglycerin (2 μM). […]
The degree of ischemia/reperfusion damage was measured by two independent commonly accepted parameters. […] In another assay, creatine phosphate kinase activity was measured from reperfusate of each heart collected during reperfusion. […] Homogenates from each heart was also obtained from a separate section of the identical sample and analyzed for aldehyde dehydrogenase enzymatic activity. Enzymatic activity was determined by a standard spectrophotometric method described above using acetaldehyde as the substrate and NAD^+ as a cofactor.

Male Wistar rats = test: In vivo LAD coronary artery ligation ischemia/reperfusion model; set-up: species or system rat; settings: 8.5 mg/kg into the left ventricle five minutes before LAD ligation, p<0.01
Protocol: Male Wistar rats (250-300 g) were anesthetized by 3% isoflurane. The surgical procedures used for left anterior descending coronary artery (LAD) ligation are based on published protocols Animals were intubated, and ventilated with a Harvard rodent ventilator at a rate of 80 breaths per minute (5-15 mm Hg). Maintenance anesthesia was provided via 1% inhalational isoflurane, and body temperature was maintained at 37° C. using a rectal probe linked to a thermocoupled thermometer and an appropriate heating blanket. The heart was exposed by median sternotomy. Following a 20-minute period of stabilization, a ligature was placed around the LAD coronary artery, close to its origin from the aortic root. The ends of the ligature were passed through polyethylene tubing forming a small noose in which a syringe plunger was rested upon the myocardial surface. Coronary occlusion was achieved by pressing the tubing against the plunger while pulling on the ligature followed by clamping the tubing with a hemostat. Occlusion was determined by observation of immediate pallor of the left ventricular free wall. Reflow was achieved by release of the ligature. […]
At the end of reperfusion, hearts were excised and flushed with 0.9% saline. […] Serum was separated by centrifugation at 5000 g for 5 minutes on a tabletop centrifuge and creatine phosphate kinase (CPK) values were determined.

ALDH2*1 wild type enzyme = target: T3, ALDH2*1 wild type enzyme (Homo sapiens, UniProt P05091); test: ALDH2 enzymatic assay, ALDH2*1 recombinant enzyme; type: biochemical; settings: for increase in activity of ALDH2*1 wild type enzyme: at the higher concentration (range 10-200 μM), n=3; for ALDH2 activation, dose dependence: range of 10-200 μM
T3 sequence (P05091 18-517): T1 sequence (P05091 18-517)
Protocol: (§2) BDDB derivative compounds, XO43 and XO44 as depicted in FIG. 12, were synthesized and tested in ALDH2 enzymatic assays. […] Enzymatic activity was measured by a reductive reaction of NAD^+ to NADH at 340 nm, as described in US 2005/0171043; and WO 2005/057213. […] (FIG. 12: n=3 for both right and left panels.)

ALDH2*2 mutant enzyme = target: T4, ALDH2*2 mutant enzyme (Homo sapiens, UniProt P05091, E504K); test: ALDH2 enzymatic assay, ALDH2*2 recombinant enzyme; type: biochemical; settings: range of 10-200 μM
T4 sequence (P05091 18-517 E504K): T1 sequence (P05091 18-517) with E487K
Protocol: as §2

SMILES | IC50 ("wild-type" ALDH2 enzyme) | increase of enzymatic activity of the E487K ALDH2 variant over control [1] | increase in activity of ALDH2*1 wild type enzyme (ALDH2*1 wild type enzyme) | ALDH2 activation, dose dependence (ALDH2*1 wild type enzyme) | ALDH2 activation, dose dependence (ALDH2*2 mutant enzyme) | further results
O=C(Nc1nc2c(Cl)c(Cl)ccc2s1)c1cccnc1 [#032208] | 1620 nM |  |  |  |  | 
CCc1ccc(C(=O)CCN(C)C)cc1 [#046072] | 1140 nM |  |  |  |  | 
COc1ccc(C(=O)CCN(C)C)cc1F [#062923] | 630 nM |  |  |  |  | 
O=C(NCc1ccc2c(c1)OCO2)c1c(Cl)cccc1Cl [Compound 1, N-(1,3-benzodioxol-5-ylmethyl)-2,6-dichlorobenzamide] |  | approximately 900% | about 180% | dosage dependent effect | dosage dependent effect | infarct size (rat hearts; ischemia-reperfusion, control 57.7±5.4%, p<0.05, n=7): 41.6±4.1%; CPK release (rat hearts; reperfusate, control 5530±329, P<0.05, n=8): 4396 Units/Liter; decrease of CPK release (Male Wistar rats; rat blood): about 57%; decrease of the extent of myocardial infarction (Male Wistar rats; rat): about 60%
O=C(NCc1ccc2c(c1)OCO2)c1c(F)cccc1F [Compound 2, N-(1,3-benzodioxol-5-ylmethyl)-2,6-difluorobenzamide] |  | approximately 300% |  |  |  | 
O=C(NCc1ccc2c(c1)OCO2)c1ccccc1Br [Compound 3, N-(1,3-benzodioxol-5-ylmethyl)-2-bromobenzamide] |  | ~600% |  |  |  | 
O=C(NCc1ccc2c(c1)OCO2)c1ccccc1I [Compound 4, N-(1,3-benzodioxol-5-ylmethyl)-2-iodobenzamide] |  | ~700% |  |  |  | 
O=C(NCc1ccc2c(c1)OCO2)c1c(Cl)cncc1Cl [XO43] |  |  | about 180% | dosage dependent effect | dosage dependent effect | 
Cc1cccc(C)c1C(=O)NCc1ccc2c(c1)OCO2 [XO44] |  |  | about 180% | dosage dependent effect | dosage dependent effect | 
